Test results published in US9617216B2, “Antifungal oxodihydropyridinecarbohydrazide derivative” (Daewoong Pharmaceutical Co., Ltd., priority 2013, dated 2017).
Converted amounts (≈) assume the structure as drawn.

Each molecule was assayed on Aspergillus fumigatus (assay: In vitro antifungal activity test (MIC), Aspergillus fumigatus). Conditions: Aspergillus fumigatus; concentration at which growth is inhibited by 50% vs negative control; 35° C., 48 hours, RPMI 1640, alama blue.
Type: cell-based
Protocol: (§1) The antifungal activities of the compounds of the present invention were evaluated using Candida albicans as yeast fungus, and Aspergillus fumigatus as a filamentous fungus. The above fungi used were all purchased from American Type Culture Collection (ATCC). The strains used in the experiment were inoculated into a Sabouraud dextrose agar medium, and then cultured at 35° C. for a sufficient period of time, e.g., 24 hours for Candida albicans, and about 7 days for Aspergillus fumigatus. As for Candida albicans, about 5 to 7 single colonies were taken from the cultured medium, sufficiently suspended in 1 ml of 0.85% sterile saline solution, and adjusted to have an optical density of 0.095 to 0.107 at 530 nm. A preparation of a strain diluent was diluted in Roswell park memorial institute (RPMI) 1640 medium at a 1:10 ratio, and the resultant was diluted again at a 1:100 ratio to obtain an inoculation preparation for Candida albicans with a concentration of 1.0×10^3 to 5.0×10^3 CFU/mL. As for Aspergillus fumigatus, the cultured Sabouraud dextrose agar was added with 1 mL of 0.2% Tween 20 diluted with 0.85% sterile saline solution, and then the plate was shaken to detach conidium from the plate. The solution collected from the plate surface was transferred into a sterile tube, and placed at room temperature for 5 minutes to deposit heavy substances. The resulting supernatant was transferred into the sterile tube, sufficiently suspended for about 15 seconds, and prepared a strain diluent with a concentration of 0.4×10^6 to 5.0×10^6 CFU/mL using a hemocytometer. The thus prepared strain diluent was diluted in RPMI 1640 medium at a 1:100 ratio to obtain an inoculation preparation for Aspergillus fumigatus. Candida albicans was cultured at 35° C. for 24 hours and Aspergillus fumigatus was cultured at 35° C. for 48 hours, and the concentrations, at which growth is inhibited by 80% or 50% compared to a negative control group, were determined using alama blue color developing reagent. All experiments were repeated twice for each concentration, and the results of antifungal activities (MIC80 MIC50 μg/mL) are shown in Tables 1 to 2.

| MIC50 | SMILES |
| --- | --- |
| 0.1 µg/mL (≈ 0.383 µM) | Cn1cc(C(=O)NNc2ccccc2F)ccc1=O [Example 1, N′-(2-fluorophenyl)-1-methyl-6-oxo-1,6-dihydropyridine-3-carbohydrazide] |
| 0.1 µg/mL (≈ 0.266 µM) | Cn1cc(C(=O)NNc2ccc(S(=O)(=O)C(F)(F)F)cc2)ccc1=O [Example 10, 1-methyl-6-oxo-N′-(4-((trifluoromethyl)sulfonyl)phenyl)-1,6-dihydropyridine-3-carbohydrazide] |
| 0.05 µg/mL (≈ 0.179 µM) | Cn1cc(C(=O)NNc2ccc(F)cc2F)ccc1=O [Example 11, N′-(2,4-difluorophenyl)-1-methyl-6-oxo-1,6-dihydropyridine-3-carbohydrazide] |
| 1.95 µg/mL (≈ 6.25 µM) | Cn1cc(C(=O)NNc2ccc(Cl)cc2Cl)ccc1=O [Example 15, N′-(2,4-dichlorophenyl)-1-methyl-6-oxo-1,6-dihydropyridine-3-carbohydrazide] |
| 0.4 µg/mL (≈ 1.53 µM) | Cn1cc(C(=O)NNc2ccc(F)nc2)ccc1=O [Example 18, N′-(6-fluoropyridine-3-yl)-1-methyl-6-oxo-1,6-dihydropyridine-3-carbohydrazide] |
| 1.8 µg/mL (≈ 6.09 µM) | Cn1cc(C(=O)NNc2cccc(F)c2)cc(Cl)c1=O [Example 24, 5-chloro-N′-(3-fluorophenyl)-1-methyl-6-oxo-1,6-dihydropyridine-3-carbohydrazide] |

Each molecule was assayed on Candida albicans (assay: In vitro antifungal activity test (MIC), Candida albicans). Conditions: Candida albicans; concentration at which growth is inhibited by 80% vs negative control; 35° C., 24 hours, RPMI 1640, alama blue.
Type: cell-based
Protocol: as §1

| SMILES | MIC80 |
| --- | --- |
| Cn1cc(C(=O)NNc2ccccc2F)ccc1=O [Example 1, N′-(2-fluorophenyl)-1-methyl-6-oxo-1,6-dihydropyridine-3-carbohydrazide] | 0.05 µg/mL (≈ 0.191 µM) |
| Cn1cc(C(=O)NNc2ccc(S(=O)(=O)C(F)(F)F)cc2)ccc1=O [Example 10, 1-methyl-6-oxo-N′-(4-((trifluoromethyl)sulfonyl)phenyl)-1,6-dihydropyridine-3-carbohydrazide] | 0.04 µg/mL (≈ 0.107 µM) |
| Cn1cc(C(=O)NNc2ccc(F)cc2F)ccc1=O [Example 11, N′-(2,4-difluorophenyl)-1-methyl-6-oxo-1,6-dihydropyridine-3-carbohydrazide] | 0.03 µg/mL (≈ 0.107 µM) |
| Cn1cc(C(=O)NNc2ccc(Cl)cc2Cl)ccc1=O [Example 15, N′-(2,4-dichlorophenyl)-1-methyl-6-oxo-1,6-dihydropyridine-3-carbohydrazide] | 0.03 µg/mL (≈ 0.0961 µM) |
| Cn1cc(C(=O)NNc2ccc(F)nc2)ccc1=O [Example 18, N′-(6-fluoropyridine-3-yl)-1-methyl-6-oxo-1,6-dihydropyridine-3-carbohydrazide] | 0.03 µg/mL (≈ 0.114 µM) |
| Cn1cc(C(=O)NNc2cccc(F)c2)cc(Cl)c1=O [Example 24, 5-chloro-N′-(3-fluorophenyl)-1-methyl-6-oxo-1,6-dihydropyridine-3-carbohydrazide] | 0.06 µg/mL (≈ 0.203 µM) |
| O=C(NNc1ccc(F)c(F)c1)c1ccc(=O)n(Cc2ccc(C(F)(F)F)nc2)c1 [Example 52, N′-(3,4-difluorophenyl)-6-oxo-1-((6-(trifluoromethyl)pyridine-3-yl)methyl)-1,6-dihydropyridine-3-carbohydrazide] | 0.08 µg/mL (≈ 0.189 µM) |
| O=C(NNc1cccc(F)c1)c1ccc(=O)n(CCOc2ccc(Cl)cc2Cl)c1 [Example 64, 1-(2-(2,4-dichlorophenoxy)ethyl)-N′-(3-fluorophenyl)-6-oxo-1,6-dihydropyridine-3-carbohydrazide] | 0.09 µg/mL (≈ 0.206 µM) |
| O=C(NNc1cccc(F)c1)c1ccc(=O)n(CC2CCCCC2)c1 [Example 66, 1-(cyclohexylmethyl)-N′-(3-fluorophenyl)-6-oxo-1,6-dihydropyridine-3-carbohydrazide] | 0.27 µg/mL (≈ 0.786 µM) |
| O=C(NNc1ccc(F)cc1)c1ccc(=O)n(CC2CCCCC2)c1 [Example 67, 1-(cyclohexylmethyl)-N′-(4-fluorophenyl)-6-oxo-1,6-dihydropyridine-3-carbohydrazide] | 0.27 µg/mL (≈ 0.786 µM) |
| O=C(NNc1cccc(F)c1)c1ccc(=O)n(CCN2CCOCC2)c1 [Example 73, N′-(3-fluorophenyl)-1-(2-morpholinoethyl)-6-oxo-1,6-dihydropyridine-3-carbohydrazide] | 0.56 µg/mL (≈ 1.55 µM) |
| O=C(NNc1ccc(F)cc1)c1ccc(=O)n(CCN2CCOCC2)c1 [Example 74, N′-(4-fluorophenyl)-1-(2-morpholinoethyl)-6-oxo-1,6-dihydropyridine-3-carbohydrazide] | 0.56 µg/mL (≈ 1.55 µM) |
| COCCn1cc(C(=O)NNc2cccc(F)c2)ccc1=O [Example 76, N′-(3-fluorophenyl)-1-(2-methoxyethyl)-6-oxo-1,6-dihydropyridine-3-carbohydrazide] | 0.12 µg/mL (≈ 0.393 µM) |
| CN(C)C(=O)Cn1cc(C(=O)NNc2ccc(F)cc2)ccc1=O [Example 77, 2-(5-(2-(4-fluorophenyl)hydrazinecarbonyl)-2-oxopyridine-1(2H)-yl)-N,N-dimethylacetamide] | 1.04 µg/mL (≈ 3.13 µM) |
| COCCn1cc(C(=O)NNc2ccc(F)cc2)ccc1=O [Example 78, N′-(4-fluorophenyl)-1-(2-methoxyethyl)-6-oxo-1,6-dihydropyridine-3-carbohydrazide] | 0.24 µg/mL (≈ 0.786 µM) |
| O=C1NNc2cc(F)ccc2C(=O)OCC/C=C/Cn2cc1ccc2=O [Example 79, (1^5E,10E)-5^5-fluoro-1^1,1^2-dihydro-7-oxa-3,4-diaza-1(5,1)-pyridina-5(1,2)-benzenacyclododecaphan-10-ene-1^2,2,6-trione] | 8.93 µg/mL (≈ 25 µM) |
| O=C1NNc2ccccc2OCC/C=C/Cn2cc1ccc2=O [Example 81, (1^5E,9E)-1^1,1^2-dihydro-6-oxa-3,4-diaza-1(5,1)-pyridina-5(1,2)-benzenacycloundecaphan-9-ene-1^2,2-dione] | 1.95 µg/mL (≈ 6.26 µM) |

The next lines start with the values.

| MIC80 | SMILES |
| --- | --- |
| 0.2 µg/mL (≈ 0.397 µM) | O=C(NNc1cccc(F)c1)c1ccc(=O)n(CCN2CCN(c3ccc(C(F)(F)F)cc3)CC2)c1 [Example 55, N′-(3-fluorophenyl)-6-oxo-1-(2-(4-(4-(trifluoromethyl)phenyl)piperazin-1-yl)ethyl)-1,6-dihydropyridine-3-carbohydrazide] |
| 0.79 µg/mL (≈ 1.57 µM) | O=C(NNc1ccc(F)cc1)c1ccc(=O)n(CCN2CCN(c3ccc(C(F)(F)F)cc3)CC2)c1 [Example 56, N′-(4-fluorophenyl)-6-oxo-1-(2-(4-(4-(trifluoromethyl)phenyl)piperazin-1-yl)ethyl)-1,6-dihydropyridine-3-carbohydrazide] |
| 0.08 µg/mL (≈ 0.207 µM) | O=C(NNc1cccc(F)c1)c1ccc(=O)n(CCc2cccc(Cl)c2)c1 [Example 57, 1-(3-chlorophenethyl)-N′-(3-fluorophenyl)-6-oxo-1,6-dihydropyridine-3-carbohydrazide] |
| 0.08 µg/mL (≈ 0.207 µM) | O=C(NNc1cccc(F)c1)c1ccc(=O)n(CCc2ccc(Cl)cc2)c1 [Example 58, 1-(4-chlorophenethyl)-N′-(3-fluorophenyl)-6-oxo-1,6-dihydropyridine-3-carbohydrazide] |
| 0.14 µg/mL (≈ 0.379 µM) | O=C(NNc1cccc(F)c1)c1ccc(=O)n(CCc2ccccc2F)c1 [Example 59, 1-(2-fluorophenethyl)-N′-(3-fluorophenyl)-6-oxo-1,6-dihydropyridine-3-carbohydrazide] |
| 0.14 µg/mL (≈ 0.379 µM) | O=C(NNc1cccc(F)c1)c1ccc(=O)n(CCc2ccc(F)cc2)c1 [Example 60, 1-(4-fluorophenethyl)-N′-(3-fluorophenyl)-6-oxo-1,6-dihydropyridine-3-carbohydrazide] |
| 0.08 µg/mL (≈ 0.208 µM) | O=C(NNc1cccc(F)c1)c1ccc(=O)n(CCOc2ccccc2F)c1 [Example 61, 1-(2-(2-fluorophenoxy)ethyl)-N′-(3-fluorophenyl)-6-oxo-1,6-dihydropyridine-3-carbohydrazide] |
| 0.16 µg/mL (≈ 0.398 µM) | O=C(NNc1cccc(F)c1)c1ccc(=O)n(CCOc2ccc(Cl)cc2)c1 [Example 62, 1-(2-(4-chlorophenoxy)ethyl)-N′-(3-fluorophenyl)-6-oxo-1,6-dihydropyridine-3-carbohydrazide] |
| 0.09 µg/mL (≈ 0.207 µM) | O=C(NNc1cccc(F)c1)c1ccc(=O)n(CCOc2cccc(C(F)(F)F)c2)c1 [Example 63, N′-(3-fluorophenyl)-6-oxo-1-(2-(3-(trifluoromethyl)phenoxy)ethyl)-1,6-dihydropyridine-3-carbohydrazide] |
| 0.08 µg/mL (≈ 0.208 µM) | O=C(NNc1cccc(F)c1)c1ccc(=O)n(CCOc2ccc(F)cc2)c1 [Example 65, 1-(2-(4-fluorophenoxy)ethyl)-N′-(3-fluorophenyl)-6-oxo-1,6-dihydropyridine-3-carbohydrazide] |
| 0.34 µg/mL (≈ 0.785 µM) | O=C(Cn1cc(C(=O)NNc2cccc(F)c2)ccc1=O)c1ccc(C(F)(F)F)cc1 [Example 68, N′-(3-fluorophenyl)-6-oxo-1-(2-oxo-2-(4-(trifluoromethyl)phenyl)ethyl)-1,6-dihydropyridine-3-carbohydrazide] |
| 0.68 µg/mL (≈ 1.57 µM) | O=C(Cn1cc(C(=O)NNc2ccc(F)cc2)ccc1=O)c1ccc(C(F)(F)F)cc1 [Example 69, N′-(4-fluorophenyl)-6-oxo-1-(2-oxo-2-(4-(trifluoromethyl)phenyl)ethyl)-1,6-dihydropyridine-3-carbohydrazide] |
| 0.09 µg/mL (≈ 0.199 µM) | O=C(Cn1cc(C(=O)NNc2ccc(F)c(F)c2)ccc1=O)c1ccc(C(F)(F)F)cc1 [Example 70, N′-(3,4-difluorophenyl)-6-oxo-1-(2-oxo-2-(4-(trifluoromethyl)phenyl)ethyl)-1,6-dihydropyridine-3-carbohydrazide] |
| 0.04 µg/mL (≈ 0.0892 µM) | O=C(Cn1cc(C(=O)NNc2cccc(F)c2)ccc1=O)Nc1ccc(C(F)(F)F)cc1 [Example 71, 2-(5-(2-(3-fluorophenyl)hydrazinecarbonyl)-2-oxopyridine-1(2H)-yl)-N-(4-(trifluoromethyl)phenyl)acetamide] |
| 0.09 µg/mL (≈ 0.201 µM) | O=C(Cn1cc(C(=O)NNc2ccc(F)cc2)ccc1=O)Nc1ccc(C(F)(F)F)cc1 [Example 72, 2-(5-(2-(4-fluorophenyl)hydrazinecarbonyl)-2-oxopyridine-1(2H)-yl)-N-(4-(trifluoromethyl)phenyl)acetamide] |
| 0.26 µg/mL (≈ 0.782 µM) | CN(C)C(=O)Cn1cc(C(=O)NNc2cccc(F)c2)ccc1=O [Example 75, 2-(5-(2-(3-fluorophenyl)hydrazine-1-carbonyl)-2-oxopyridine-1(2H)-yl)-N,N-dimethylacetamide] |
